Consider one molecule from patent publication US10434199B2, “Picolinate cross-bridged cyclams, chelates with metallic cations and use thereof” (UNIVERSITÉ DE BRETAGNE OCCIDENTALE, priority 2013, dated 2019).

What all share (format): physicochemical
A short description of data set [1]: Copper(II) complex formation kinetics (UV-vis, buffered aqueous solutions). The note with it: for time to completion (>99%) of copper(II) complex formation: 25° C. The method, then:
Complex Formation. The formation of the copper(II) complex of Hcb-te1pa was studied in buffered aqueous solutions at 25° C. The increasing intensity of the complex d-d transition band in the visible range (600 nm) was followed at pH=5.0 (0.2 M potassium acetate buffer) and pH=7.4 (0.2 M HEPES buffer), with [Cu^2+]=[Hcb-te1pa]=0.8 mM. Additionally, complex formation was also studied at pH=3.0 (0.2 M (K,H)Cl) under pseudo-first order conditions, by following the increasing charge transfer band in the UV range (at 310 nm) at [Cu^2+]=10×[Hcb-te1pa]=2 mM.
The copper(II) complex formation with Hcb-te1pa was spectroscopically monitored in different buffered solutions from acidic to neutral pH. […] The reaction becomes progressively slower because of the increase of the acidity of the reaction media, enabling a kinetic study under pseudo-first order conditions using conventional UV-vis spectroscopic methods. In this work such kinetic study was performed at pH=3, which is at the lower limit of the pH range in which the copper(II) complexation is approximately complete under equilibrium in equimolar metal-to-ligand conditions.

The nature of data set [2]: Cyclic voltammetry of the copper(II) complexes. The note with it: overview table. The method, then:
Cyclic voltammograms were measured using Autolab equipment at room temperature. All measurements were made using a three-electrode system: a glassy-carbon electrode as a working electrode, a platinum wire as a counter-electrode, and a saturated calomel reference electrode. All electrochemical experiments were performed in ca. 1 mM aqueous solutions of preformed complex under a N2 atmosphere containing 0.1 M NaClO4 as the supporting electrolyte. From the initial potential of the analysis (0 V), the voltage was ramped to −1.3 V, then to 0.2 V, and back to 0 V at a scan rate of 100 mV/s. All potentials are expressed relative to the saturated calomel electrode (SCE) except otherwise noted.
One of the explanations for the dissociation of copper(II) complexes of macrocyclic ligands in biological media is the metal reduction to copper(I) followed by the demetallation of the complex. It is thus important to ensure the electrochemical inertness as well as the reversibility of the redox system. To determine the redox behavior of the copper complex of Hcb-te1pa, cyclic voltammetry experiments were performed in aqueous solution at pH values of 2.3 and 6.8. The experiments were carried out with a glassy-carbon working electrode in solutions containing 0.1 M NaClO4 as supporting electrolyte.

Data set [3] can be described thus: Potentiometric titrations: stability constants and pM of Zn^2+ complexes. The method, then:
Equipment and work conditions. The potentiometric setup has been described in Roger, M. et al. Inorg. Chem. 2013, 52, 5246-5259. The titrant was a KOH solution prepared at ca. 0.1 M from a commercial ampoule of analytical grade, and its accurate concentration was obtained by application of the Gran's method upon titration of a standard HNO3 solution (Rossotti, F. J. and Rossotti, H. J. J. Chem. Educ. 1965, 42, 375-378). Ligand solutions were prepared at about 2.0×10^−3 M, and the Cu^2+ and Zn^2+ solutions at ca. 0.05 M from analytical grade nitrate salts and standardized by complexometric titrations with H4edta (ethylenediaminetetraacetic acid). Sample solutions for titration contained approximately 0.04 mmol of ligand in a volume of 30 mL where the ionic strength was kept at 0.10 M using KNO3 as background electrolyte. Metal cations were added at 0.9 equiv. of the ligand amount in complexation titrations. Batch titrations were prepared in a similar way but with each titration point corresponding to 1/10 of the amount of a conventional titration sample. Batch titration points were incubated in tightly closed vials at 25° C. until potential measurements attained complete stability, which happened within a week.
Measurements. All measurements were carried out at 25.0±0.1° C. under inert atmosphere. The electromotive force of the sample solutions was measured after calibration of the electrodes by titration of a standard HNO3 solution at 2.0×10^−3 M in the work conditions. The [H^+] of the solutions was determined by measurement of the electromotive force of the cell, E=E^o′+Q log [H^+]+Ej. The term pH is defined as −log [H^+]. E^o′ and Q were determined from the acid region of the calibration curves. Deviations from the Nernst law at very low pH (pH<2.5) were corrected with the VLpH software (Calibration software from the maker of Hyperquad available for free at http://www.hyperquad.co.uk/), which performs a [H^+] correction based on a very low pH calibration procedure. The liquid-junction potential, Ej, was otherwise found to be negligible for pH >2.5 under the experimental conditions used. […] Each titration consisted of 80-100 equilibrium points in the range of pH 2.5-11.5 (or 1.5-11.5 for Cu^2+ complexations), and at least two replicate titrations were performed for each particular system.
Calculations. The potentiometric data were refined with the Hyperquad software, and speciation diagrams were plotted using the HySS software. The overall equilibrium constants βi^H and βMmHhL1 are defined by βMmHhL1=[MmHhLl]/[M]^m[H]^h[L]^l (βi^H=[HhLl]/[H]^h[L]^l and βML-1L=βML(OH)×Kw). Differences in log units between the values of protonated (or hydrolysed) and non-protonated constants provide the stepwise (log K) reaction constants (being KMmHhL1=[MmHhLl]/[MmHh-1Ll][H]). The errors quoted are the standard deviations calculated by the fitting program from all the experimental data for each system.
The stability constants of the complexes formed by Hcb-te1pa with Cu^2+ and Zn^2+ were determined by potentiometric titrations in aqueous solution at 25.0° C. in 0.10 M KNO3 ionic strength (Table 2).
The equilibrium of formation of the copper(II) and especially the zinc(II) complexes is slow in the acidic pH range. In the case of Cu^2+, the complexation is almost complete from low pH but relatively slow up to pH=4. To overcome this double problem, conventional titrations were performed at pH values below 2 in order to observe a significant percentage of free metal ion (at least 18%) and thus allow for determination of the corresponding stability constant, while giving the solution enough time to reach equilibrium prior to the start of the titration. During titrations, each experimental point included a supplementary equilibration time in order to yield fully stabilized measurements. […]

SMILES strings stand for the structures.

Take `O=C(O)c1cccc(CN2CCCN3CCNCCCN(CC3)CC2)n1` [Hcb-te1pa, 6-(1,4,8,11-tetraazabicyclo[6.6.2]hexadecan-4-ylmethyl)picolinic acid]: the “a) metallation kinetics: time required for complete (>99%) Cu complexation” value in data set [1] (overview table) is 3 min. Further, the “time to quantitative (>99%) formation of copper(II) complex” value in data set [1] (pH=3, pseudo-first order, excess of 10 equivalents of metal cation) is at most 10 min. Besides, the “time to completion (>99%) of copper(II) complex formation” value in data set [1] (pH=5, equimolar metal-to-ligand ratio) was at most 3 min. In addition, in data set [1] (physiological pH (7.4), equimolar metal-to-ligand ratio), the “time to completion (>99%) of copper(II) complex formation” value was “within a few seconds”. For the same molecule, the copper chelated immediately result in data set [1] (remaining copper chelated within a few seconds) is given as “more than 90%”. Besides, in data set [2], the “e) stability upon reduction, Cu(II) -> Cu (I): reduction potential” value is recorded as −0.696 V and the “e) stability upon reduction, Cu(II) -> Cu (I): reversibility” value was “reversible”. For the same molecule, in data set [3] (25.0° C., I = 0.10M KNO3), the “log KMLHh, ZnLOH + H^+ ⇌ ZnL” value came to 11.33 log units; the “log KMLHh, Zn^2+ + L ⇌ ZnL” value amounted to 18.83 log units; the “log βMLHh, Zn^2+ + L ⇌ ZnL” value is 18.83(6) log units; the “log βMLHh, Zn^2+ + L ⇌ ZnLOH + H^+” value is reported as 7.50(7) log units. The “c) inertness vs Zn: log K[ZnL]” value in data set [3] (overview table) amounted to 18.83. In addition, the “c) inertness vs Zn: pZn” value in data set [3] (overview table, calculated pM) is recorded as 8.50. Also, the “Calculated pM, Zn^2+” value in data set [3] (pH = 7.4, 100% excess of ligand, [M^2+]tot = 1 × 10^−5 M) is recorded as 8.50.
